This is an account of results in patent US8367727B2, “Method of using abscisic acid to treat diseases and disorders” (priority 2006, dated 2013).

Assay [1] concerns dextran sodium sulfate (DSS)-induced colitis. The assay can be described thus: DSS-induced colitis in C57BL/6J (wt) and PPAR γ flfl; CD4 Cre+ mice. The assay is classed as in vivo. The procedure: Eight to twelve week old C57BL/6J (n=16) and PPAR γ flfl; CD4 cre+(n=20) mice were housed at the animal facilities at Virginia Polytechnic Institute and State University in a room maintained at 75° F., with a 12:12 h light-dark cycle starting from 6:00 AM. All experimental procedures were approved by the Institutional Animal Care and Use Committee of Virginia Polytechnic Institute and State University and met or exceeded requirements of the Public Health Service/National Institutes of Health and the Animal Welfare Act. C57BL/6J mice were fed AIN-93G-based diets with or without 100 mg/kg of a racemic ABA mixture for 35 days prior to induction of colitis with water containing 2.5% dextran sodium sulfate (DSS), 36,000-44,000 mol wt (ICN Biomedicals, Aurora, Ohio). After the DSS challenge mice were weighed on a daily basis and examined for clinical signs of disease associated with colitis (i.e., perianal soiling, rectal bleeding, diarrhea, and piloerection). For the DSS challenge, the disease activity indices and rectal bleeding scores were calculated using a modification of a previously published compounded clinical score (50). […] Spleen and mesenteric lymph nodes (MLN) were scored based on size and macroscopic inflammatory lesions (0-3), excised, and then crushed to produce single-cell suspensions for flow cytometry.

The next assay has as its system CD4+ T cells. The assay is described as follows: CFSE flow cytometry proliferation assay, Concanavalin A-stimulated splenocytes, CD4+ T cells. The assay is classed as cell-based, mice. To be noted: 100 mg ABA/kg diet; first 2 generations. The procedure:
Single cell suspensions were prepared from the spleen by gently crushing the spleens excised during the necropsy procedure between the frosted ends of microscope glass slides previously autoclaved. Tissue debris were removed by settling, erythrocytes were eliminated by hypotonic lysis and cells finally resuspended in complete RPMI (cRPMI, 10% fetal bovine serum (Hyclone, Logan, Utah), 25 mM HEPES buffer (Sigma, St. Louis, Mo.), 100 units/ml penicillin (Sigma), […] streptomycin (Sigma), 1 mM sodium pyruvate (Sigma), 1 mM nonessential aminoacids (Sigma), and 2 mM essential amino acids (Mediatech), and enumerated with a Coulter Z1 Single Particle Counter (Beckman Coulter, Miami, Fla.). […]
Splenocytes at 10^6 cells/ml were seeded in 96-well, round-bottom microtiter plates and incubated incomplete RPMI with or without Concanavalin A (Sigma) at 2.5 μg/ml. […] Following 2 washes in Fluorescence activated cell sorting (FACS) buffer, cells were incubated with streptavidin-PeCy5 (Pharmingen, San Diego, Calif.) for the biotinylated anti-mouse CD4 antibody. Cells were analyzed by 3-color flow cytometry (CFSE, phycoerythrin and PeCy5) in a FACScalibur instrument (Becton Dickinson). Ten thousand events were acquired, and data were analyzed using the Cell Quest Pro™ software (Becton Dickinson). Proliferation was assessed by the decrease in fluorescent intensity of CFSE staining. […]
In general terms: A flow cytometer gives signals particle by particle.

Assay [2] relates to colon inflammatory gene expression. The assay can be described thus: Colon gene expression by real-time quantitative PCR, DSS colitis. It is filed as in vivo, mice. From the text:
Complementary DNA (cDNA) concentrations for genes of interest were examined by real-time quantitative PCR using an iCycler IQ System and the iQ SYBR green supermix (Bio-Rad). A standard curve was generated for each gene using 10-fold dilutions of purified amplicons starting at 5 pg of cDNA and used later to calculate the starting amount of target cDNA in the unknown samples. SYBR green I is a general double-stranded DNA intercalating dye and may therefore detect nonspecific products and primer/dimers in addition to the amplicon of interest. In order to determine the number of products synthesized during the real-time PCR, a melting curve analysis was performed on each product. Real-time PCR was used to measure the starting amount of nucleic acid of each unknown sample of cDNA on the same 96-well plate. Results are presented as starting quantity of target cDNA (picograms) per microgram of total RNA.

Assay [3] has as its system white adipose tissue (WAT) of db/db mice. The assay is described as follows: WAT histology: adipocyte area and macrophage infiltration. It is filed as in vivo. The text has this:
Hepatic and adipose sections were fixed in 10% buffered neutral formalin, embedded in paraffin, cut at thicknesses of 7 microns and later stained with hematoxylin and eosin (H&E) for histological examination of adipocyte hypertrophy and inflammatory lesions. Hepatic sections were scored based on the amount of lipodystrophy observed according to the Nonalcoholic steatohepatitis (NASH) scoring method, with a score of 0 signifying <5% of the cells contain lipid droplets and a score of 4 signifying that >75% of the cells contained lipids and a magnification of 400× (23). The final score was the average of five randomly chosen fields. The area of adipocytes from WAT was analyzed using Sigma Pro® 5.0 software at a magnification of 100×, and macrophage infiltration was determined by averaging the number of macrophages observed in five different fields at 400×.

For `CC1=CC(=O)CC(C)(C)C1(O)/C=C/C(C)=C\C(=O)O` (racemic) [ABA, abscisic acid], the “improvements in disease activity and inflammation” value in assay [1] (CD4cre mice lacking PPAR γ in CD4+ T cells) was “not present in the CD4cre mice”. The “disease activity and macroscopic inflammation” value in assay [1] (wild-type (wt) mice) was “significantly reduced disease activity and macroscopically observable inflammation”. In the assay on CD4+ T cells, the “CD4+ T cells RPI1” value was found to be 17.72. Besides, in assay [2] (ABA-supplementation, DSS), the “colonic expression of E-selectin” value is on record as “significantly lowered”, the “colonic expression of ICAM-1” value is on record as “no affect”, the “colonic expression of MAdCAM-1” value is “significantly lowered” and the “colonic expression of PECAM-1” value is recorded as “no affect”. The “colonic expression of VCAM-1” value in assay [2] (ABA-supplementation, DSS) is “significantly lowered”. In assay [2] (ABA-treated mice), the “colonic IL-6” value is listed as “significantly attenuated levels”, the “colonic MMP-9” value is “significantly attenuated levels” and the “colonic iNOS” value was “significantly attenuated levels”. In addition, in assay [2] (colons of ABA-fed mice), the “colonic PPAR γ, CD36 and FABP4 expression” value is reported as “Neither colonic PPAR γ nor its responsive genes CD36, or FABP4 were significantly affected”. The “adipocyte size in WAT” value in assay [3] (ABA-fed vs control-fed db/db mice) is “significantly more small adipocytes and fewer hypertrophic adipocytes”. Further, the “macrophages infiltrating WAT” value in assay [3] (ABA-fed vs control-fed, P<0.05) is reported as “significantly lower number of macrophages”.
